Source: patent US10532985B2, “Heterocycle and carbocycle derivatives having TRKA inhibitory activity” (Shionogi & Co., Ltd., priority 2014, dated 2020)

These compounds were tested against T1, human TrkA (Homo sapiens, UniProt P04629) (assay: Test Example 2: Human TrkA Inhibition Assay). Details: Test Example 2; human TrkA 2.5 nmol/L, ATP 500 μmol/L, 90 min at room temperature; read-out: TrkA inhibitory activity IC50.
T1 construct: purchased Lifetechnologies PV3144
Type: biochemical
Procedure: After the incubation for 90 min at room temperature, ten μL of termination buffer (100 mmol/L HEPES, 40 mmol/L ethylenediaminetetraacetic acid (EDTA), 10 mmol/L magnesium chloride, 0.003 vol % Brij-35, 0.004 vol % Tween20, 1 mmol/L DTT and 0.16 vol % Coating Reagent 3) was added in each well to stop the enzyme reaction. Fluorescent intensities (FI) of phosphorylated and non-phosphorylated fluorescent substrates were measured by LabChip EZReader II (Caliper LifeSciences, Inc.) and conversion ratio (CR) was calculated by the following formula-1. The CR in the well applied with DMSO alone was used as a negative control and the CR in the well without applying TrkA was used as a positive control. The inhibitory effect of each compound on TrkA phosphorylation was calculated by the following formula-2. CR (%)=(FI of phosphorylated substrate/(FI of phosphorylated substrate+FI of non-phosphorylated substrate))×100 (Formula-1) Inhibitory effect on TrkA phosphorylation (%)=(1−(CR in compound treated well−CR in positive control)/(CR in negative control−CR in positive control))×100. (Formula-2)

T1 sequence (P04629 33-796): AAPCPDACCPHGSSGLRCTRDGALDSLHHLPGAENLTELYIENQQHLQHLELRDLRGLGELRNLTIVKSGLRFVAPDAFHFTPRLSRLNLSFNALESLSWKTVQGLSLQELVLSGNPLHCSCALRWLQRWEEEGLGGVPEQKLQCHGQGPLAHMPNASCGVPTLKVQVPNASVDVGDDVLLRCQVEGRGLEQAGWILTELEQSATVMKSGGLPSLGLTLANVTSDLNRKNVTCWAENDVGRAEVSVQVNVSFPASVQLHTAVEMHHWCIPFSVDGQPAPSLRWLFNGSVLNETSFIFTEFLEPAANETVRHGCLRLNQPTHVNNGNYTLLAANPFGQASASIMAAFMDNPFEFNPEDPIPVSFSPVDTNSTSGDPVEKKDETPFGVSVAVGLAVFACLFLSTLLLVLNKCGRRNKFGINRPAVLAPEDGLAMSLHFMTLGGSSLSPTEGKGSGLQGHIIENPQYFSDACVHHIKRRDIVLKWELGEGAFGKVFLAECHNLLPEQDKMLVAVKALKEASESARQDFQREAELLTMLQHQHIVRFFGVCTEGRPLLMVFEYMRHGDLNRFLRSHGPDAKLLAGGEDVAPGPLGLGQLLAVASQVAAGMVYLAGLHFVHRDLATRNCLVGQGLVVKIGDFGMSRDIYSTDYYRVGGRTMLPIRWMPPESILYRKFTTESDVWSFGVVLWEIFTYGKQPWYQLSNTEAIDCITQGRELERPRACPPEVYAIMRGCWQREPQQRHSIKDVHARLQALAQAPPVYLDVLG

Compound | IC50 [µM]
Cc1c(-c2cnn(C)c2)nn(-c2ccccc2)c1NC(=O)N[C@@H]1CN(CC2(C)COC2)C[C@H]1c1ccc(F)c(F)c1 [Compound I-142] | 1.3
COCCN1C[C@@H](NC(=NO)Nc2c(C)c(-c3cnn(C)c3)nn2-c2ccccc2)[C@H](c2ccccc2)C1 [Compound I-129] | 0.44
Cc1c(-c2cnn(C)c2)nn(-c2ccccc2)c1NC(=O)N[C@@H]1CC(O)C[C@H]1c1ccccc1 (some centres unmarked) [Compound I-168] | 7
COCCN1C[C@@H](NC(=C[N+](=O)[O-])Nc2c(C)c(-c3cnn(C)c3)nn2-c2ccccc2)[C@H](c2ccccc2)C1 [Compound I-146] | 1.8

Same assay, conditions: human TrkA inhibition, Test Example 2; class symbols A/B/C; read-out: IC50_nM

Compound | IC50 [µM]
COCCN1C[C@@H](NC(=O)Nc2c(C)c(-c3cnn(C)c3)nn2-c2ccccc2)[C@H](c2cccc(C(N)=O)c2)C1 (racemic) [Compound I-21] | > 1
Cc1c(-c2cnn(C)c2)nn(-c2ccccc2)c1NC(=O)N[C@@H]1CC(C)C[C@H]1c1ccccc1 (some centres unmarked) [Compound I-36] | < 0.1
Cc1c(-c2cnn(C)c2)nn(-c2ccccc2)c1NC(=O)N[C@@H]1C[C@@H](C)N[C@H]1c1ccc(F)c(F)c1 (racemic) [Compound I-77] | > 1
Cc1c(-c2cnn(C)c2)nn(-c2ccccc2)c1NC(=O)N[C@@H]1CN(C2CCC2)C[C@H]1c1ccc(F)c(F)c1 [Compound I-125] | 0.1 to 1
Cc1c(-c2cnn(C)c2)nn(-c2ccccc2)c1NC(=O)N[C@@H]1CN(CCNS(C)(=O)=O)C[C@H]1c1ccc(F)c(F)c1 [Compound I-42] | 0.1 to 1
COCCN1C[C@@H](NC(=O)Nc2c(C)c(-c3cnn(C)c3)nn2-c2ccccc2)[C@H](c2ccc(C(=O)OC)cc2)C1 (racemic) [Compound I-20] | 0.1 to 1
COCCN1C[C@@H](NC(=O)Nc2c(C)c(-c3cnn(C)c3)nn2-c2ccccc2)[C@H](c2ccc3oc(=O)[nH]c3c2)C1 (racemic) [Compound I-149] | > 1
COCCN1C[C@@H](NC(=O)Nc2c(C)c(-c3cnn(C)c3)nn2-c2ccccc2)[C@H](c2cccc(-c3ccncc3)c2)C1 (racemic) [Compound I-60] | > 1
COCC(Cn1ccnc1)N1C[C@@H](NC(=O)Nc2c(C)c(-c3cnn(C)c3)nn2-c2ccccc2)[C@H](c2ccc(F)c(F)c2)C1 (some centres unmarked) [Compound I-127] | 0.1 to 1
COCC(C(=O)N(C)C)N1C[C@@H](NC(=O)Nc2c(C)c(-c3cnn(C)c3)nn2-c2ccccc2)[C@H](c2ccc(F)c(F)c2)C1 (some centres unmarked) [Compound I-155] | > 1
Cc1c(-c2cnn(C)c2)nn(-c2ccccc2)c1NC(=O)N[C@@H]1CN(C2CCOC2)C[C@H]1c1ccc(F)c(F)c1 (some centres unmarked) [Compound I-39] | > 1
COCC(C(N)=O)N1C[C@@H](NC(=O)Nc2c(C)c(-c3cnn(C)c3)nn2-c2ccccc2)[C@H](c2ccc(F)c(F)c2)C1 (some centres unmarked) [Compound I-133] | 0.1 to 1
COCCN1C[C@@H](NC(=O)Nc2c(C)c(-c3cnn(C)c3)nn2-c2ccccc2)[C@H](c2cccc(/C=C/c3ccccc3)c2)C1 (racemic) [Compound I-49] | < 0.1
COCCN1C[C@H](NC(=O)Nc2c(C)c(-c3cnn(C)c3)nn2-c2ccccc2)[C@H](c2ccc(F)c(F)c2)C1 (racemic) [Compound I-6] | > 1
Cc1c(-c2cnn(C)c2)nn(-c2ccccc2)c1NC(=O)N[C@@H]1CCC[C@H]1c1ccccc1 (racemic) [Compound I-13] | > 1
COCCN1C[C@@H](NC(=O)Nc2c(C)c(-c3cnn(C)c3)nn2-c2ccccc2)[C@H](c2cccc(-c3cccc(C(=O)OC)c3)c2)C1 (racemic) [Compound I-57] | 0.1 to 1
C=C1C[C@@H](NC(=O)Nc2c(C)c(-c3cnn(C)c3)nn2-c2ccccc2)[C@H](c2ccc(F)c(F)c2)C1 (racemic) [Compound I-135] | 0.1 to 1
Cc1c(-c2cnn(C)c2)nn(-c2ccccc2)c1NC(=O)N[C@@H]1CN(CC2CCCO2)C[C@H]1c1ccc(F)c(F)c1 (some centres unmarked) [Compound I-24] | 0.1 to 1
COCCN1C[C@@H](NC(=O)Nc2c(C)c(-c3cnn(C)c3)nn2-c2ccccc2)[C@H](c2cccc(-c3cn[nH]c3)c2)C1 (racemic) [Compound I-175] | > 1
Cc1c(-c2cnn(C)c2)nn(-c2ccccc2)c1NC(=O)N[C@@H]1CN(C(CO)c2ccco2)C[C@H]1c1ccc(F)c(F)c1 (some centres unmarked) [Compound I-108] | < 0.1
Cc1c(-c2cnn(C)c2)nn(-c2ccccc2)c1NC(=O)NC1CNCCC1c1ccc(F)c(F)c1 (centres unmarked) [Compound I-2] | > 1
CC(=O)NCCN1C[C@@H](NC(=O)Nc2c(C)c(-c3cnn(C)c3)nn2-c2ccccc2)[C@H](c2ccc(F)c(F)c2)C1 [Compound I-40] | > 1
Cc1c(-c2cnn(C)c2)nn(-c2ccccc2)c1NC(=O)N[C@@H]1CN(C2COC(=O)C2)C[C@H]1c1ccc(F)c(F)c1 (some centres unmarked) [Compound I-152] | > 1
COCCN1C[C@@H](NC(=O)Nc2c(C)c(-c3cnn(C)c3)nn2-c2ccccc2)[C@H](c2cccc(-c3ccccc3C#N)c2)C1 (racemic) [Compound I-55] | 0.1 to 1
Cc1c(-c2cnn(C)c2)nn(-c2ccccc2)c1NC(=O)N[C@@H]1C[C@@H](C)N(C(=O)OC(C)(C)C)[C@H]1c1ccc(F)c(F)c1 (racemic) [Compound I-76] | > 1

Compound | IC50 [µM]
COCCN1C[C@@H](NC(=O)Nc2c(C)c(-c3cnn(C)c3)nn2-c2ccccc2)[C@H](c2cccc(C3=CCCCC3)c2)C1 (racemic) [Compound I-58] | > 1
COCC(CN1CCC1)N1C[C@@H](NC(=O)Nc2c(C)c(-c3cnn(C)c3)nn2-c2ccccc2)[C@H](c2ccc(F)c(F)c2)C1 (some centres unmarked) [Compound I-119] | 0.1 to 1
CNC(=O)C(COC)N1C[C@@H](NC(=O)Nc2c(C)c(-c3cnn(C)c3)nn2-c2ccccc2)[C@H](c2ccc(F)c(F)c2)C1 (some centres unmarked) [Compound I-137] | 0.1 to 1
COCCN1C[C@@H](NC(=O)Nc2c(C)c(-c3cnn(C)c3)nn2-c2ccccc2)[C@H](c2cccc(-c3cccc(C#N)c3)c2)C1 (racemic) [Compound I-52] | 0.1 to 1
COCCN1[C@@H]2CC[C@H]1[C@@H](c1ccc(F)c(F)c1)[C@@H]2NC(=O)Nc1c(C)c(-c2cnn(C)c2)nn1-c1ccccc1 (racemic) [Compound I-30] | > 1
COCCN1C[C@@H](NC(=O)Nc2c(C)c(-c3cnn(C)c3)nn2-c2ccccc2)[C@H](c2ccc3ccccc3c2)C1 (racemic) [Compound I-104] | < 0.1
COCCCN1[C@@H]2CC[C@H]1[C@@H](c1ccc(F)c(F)c1)[C@@H]2NC(=O)Nc1c(C)c(-c2cnn(C)c2)nn1-c1ccccc1 (racemic) [Compound I-70] | > 1
Cc1c(-c2cnn(C)c2)nn(-c2ccccc2)c1NC(=O)N[C@@H]1CN(CCNC(=O)OC(C)(C)C)C[C@H]1c1ccc(F)c(F)c1 [Compound I-31] | > 1
COCCN1C[C@@H](NC(=O)Nc2c(C)c(-c3cnn(C)c3)nn2-c2ccccc2)[C@H](c2cccc(-c3ccoc3)c2)C1 (racemic) [Compound I-51] | < 0.1
COCCN1C[C@@H](NC(=O)N(C)c2c(C)c(-c3cnn(C)c3)nn2-c2ccccc2)[C@H](c2ccc(F)c(F)c2)C1 [Compound I-32] | > 1
COCC(CN(C)C)N1C[C@@H](NC(=O)Nc2c(C)c(-c3cnn(C)c3)nn2-c2ccccc2)[C@H](c2ccc(F)c(F)c2)C1 (some centres unmarked) [Compound I-115] | 0.1 to 1
COCC(CN)N1C[C@@H](NC(=O)Nc2c(C)c(-c3cnn(C)c3)nn2-c2ccccc2)[C@H](c2ccc(F)c(F)c2)C1 (some centres unmarked) [Compound I-131] | 0.1 to 1
Cc1c(-c2cnn(C)c2)nn(-c2ccccc2)c1NC(=O)N[C@@H]1CN(CCOc2ccccc2)C[C@H]1c1ccc(F)c(F)c1 [Compound I-23] | 0.1 to 1
CCOC1CC(N2C[C@@H](NC(=O)Nc3c(C)c(-c4cnn(C)c4)nn3-c3ccccc3)[C@H](c3ccc(F)c(F)c3)C2)C1 (some centres unmarked) [Compound I-160] | > 1
Cc1c(-c2cnn(C)c2)nn(-c2ccccc2)c1NC(=O)N[C@H]1[C@H](c2ccc(F)c(F)c2)[C@@H]2CC[C@H]1N2 (racemic) [Compound I-68] | > 1
Cc1c(-c2cnn(C)c2)nn(-c2ccccc2)c1NC(=O)N[C@@H]1CN(C2CCCC2)C[C@H]1c1ccc(F)c(F)c1 [Compound I-166] | > 1
Cc1c(-c2cnn(C)c2)nn(-c2ccccc2)c1NC(=O)N[C@@H]1CN(C2CCCCC2)C[C@H]1c1ccc(F)c(F)c1 [Compound I-143] | > 1
CCON=C1C[C@@H](NC(=O)Nc2c(C)c(-c3cnn(C)c3)nn2-c2ccccc2)[C@H](c2ccccc2)C1 [Compound I-120] | 0.1 to 1
COCCN1C[C@@H](NC(=O)Nc2c(C)c(OCC(C)(C)O)nn2-c2ccccc2)[C@H](C2CCC(F)(F)CC2)C1 (racemic) [Compound I-34] | > 1
CCOC(=O)C=C1C[C@@H](NC(=O)Nc2c(C)c(-c3cnn(C)c3)nn2-c2ccccc2)[C@H](c2ccccc2)C1 [Compound I-126] | 0.1 to 1
COCCN1C[C@@H](NC(=O)Nc2c(C)c(-c3cnn(C)c3)nn2-c2ccccc2)[C@H](c2ccc3c(c2)NCCO3)C1 (racemic) [Compound I-162] | > 1
COCCN1C[C@@H](NC(=NOC)Nc2c(C)c(-c3cnn(C)c3)nn2-c2ccccc2)[C@H](c2ccccc2)C1 [Compound I-144] | > 1
Cc1c(-c2cnn(C)c2)nn(-c2ccccc2)c1NC(=O)N[C@@H]1CN(CC2CCCCO2)C[C@H]1c1ccc(F)c(F)c1 (some centres unmarked) [Compound I-43] | > 1
COCCN1C[C@@H](N(C)C(=O)Nc2c(C)c(-c3cnn(C)c3)nn2-c2ccccc2)[C@H](c2ccccc2)C1 (racemic) [Compound I-17] | > 1
